Experimental data as given in patent US11786471B2, “Complex disintegrant system for oral solid preparation and oral solid preparation comprising said complex disintegrant system” (WUHAN LL SCIENCE AND TECHNOLOGY DEVELOPMENT CO., LTD., priority 2016, dated 2023).

What was measured:
[1] = system: spontaneously hypertensive rats; assay: Antihypertensive efficacy test in spontaneously hypertensive rats: systolic blood pressure change; assay type: in vivo, rat; conditions: SHR; for antihypertensive effect compared with the corresponding unsalted compound: oral administration; for antihypertensive effect compared with the corresponding unsalted compound / systolic blood pressure compared with the control group: result in words; for systolic blood pressure compared with the control group: after 3 hours of administration; for Systolic blood pressure change, 1 hour after administration (average ± standard error) / Systolic blood pressure change, 3 hours after administration (average ± standard error) / Systolic blood pressure change, 5 hours after administration (average ± standard error) / Systolic blood pressure change, 7 hours after administration (average ± standard error) / Systolic blood pressure change, 10 hours after administration (average ± standard error) / Systolic blood pressure change, 24 hours after administration (average ± standard error): intragastric, 1 mg/kg (calculated by effective dose of Azilsartan), relative to before administration
Procedure: (§1) 12-week-old spontaneously hypertensive rats (hereinafter referred to as SHR, purchased from Beijing Weitong Lihua Experimental Animal Technology Co., Ltd.) were anesthetized with 2.5% sodium pentobarbital for intraperitoneal injection. After that, the blood pressure sensing catheter of hypertension implant was inserted into their abdominal aorta, while the implant was fixed to the abdominal wall, and then postoperative daily care was performed after suturing. Rats with systolic blood pressure exceeding 160 mm Hg were divided into 3 groups (control group, QR01019 group and QR01019K group) wherein each group has 8 rats. The control group was administrated 0.5% sodium carboxymethylcellulose (hereinafter referred to as CMC-Na); QR01019 group and QR01019K group were respectively administered, both of which were dissolved by 0.5% CMC-Na, by intragastric administration, at a dose of 1 mg/kg (calculated by the effective dose of Azilsartan) and a volume calculated by 4 mL/kg. The systolic blood pressure and heart rate of SHR were compared before and after administration (the systolic blood pressure and heart rate of SHR before administration as reference value), which were detected three times at each time point with the average value recorded.

[2] = system: spontaneously hypertensive rats; assay: Heart rate change in spontaneously hypertensive rats; assay type: in vivo, rat; conditions: SHR; for heart rate lowering effect compared with the corresponding unsalted compound: oral administration, result in words; for Heart rate change, 1 hour after administration (average ± standard error) / Heart rate change, 3 hours after administration (average ± standard error) / Heart rate change, 5 hours after administration (average ± standard error) / Heart rate change, 7 hours after administration (average ± standard error) / Heart rate change, 10 hours after administration (average ± standard error) / Heart rate change, 24 hours after administration (average ± standard error): intragastric, 1 mg/kg (calculated by effective dose of Azilsartan), relative to before administration
Procedure: as §1

For `CCOc1nc2cccc(C(=O)OCOC(=O)C(C)(C)C)c2n1Cc1ccc(-c2ccccc2-c2noc(=O)[n-]2)cc1.[K+]` [QR01005K], the “antihypertensive effect compared with the corresponding unsalted compound” value [1] was “more potent and longer-lasting” and the “heart rate lowering effect compared with the corresponding unsalted compound” value [2] was “more potent and longer-lasting”.

With `CCOc1nc2cccc(C(=O)OCCCCO[N+](=O)[O-])c2n1Cc1ccc(-c2ccccc2-c2noc(=O)[n-]2)cc1.[K+]` [QR01008K] the “antihypertensive effect compared with the corresponding unsalted compound” value [1] was “more potent and longer-lasting” and the “heart rate lowering effect compared with the corresponding unsalted compound” value [2] was “more potent and longer-lasting”.

`CCOc1nc2cccc(C(=O)OCc3c(-c4ccccc4)no[n+]3[O-])c2n1Cc1ccc(-c2ccccc2-c2noc(=O)[n-]2)cc1.[K+]` [QR01009K] was tested, and the “antihypertensive effect compared with the corresponding unsalted compound” value [1] was “more potent and longer-lasting” and the “heart rate lowering effect compared with the corresponding unsalted compound” value [2] was “more potent and longer-lasting”.

For `CCOc1nc2cccc(C(=O)OCCCCOc3no[n+]([O-])c3S(=O)(=O)c3ccccc3)c2n1Cc1ccc(-c2ccccc2-c2noc(=O)[n-]2)cc1.[K+]` [QR01011K], the “antihypertensive effect compared with the corresponding unsalted compound” value [1] was “more potent and longer-lasting” and the “heart rate lowering effect compared with the corresponding unsalted compound” value [2] was “more potent and longer-lasting”.

`CCOc1nc2cccc(C(=O)OCc3oc(=S)oc3C)c2n1Cc1ccc(-c2ccccc2-c2noc(=O)[n-]2)cc1.[K+]` [QR01013K] was tested, and the “antihypertensive effect compared with the corresponding unsalted compound” value [1] was “more potent and longer-lasting” and the “heart rate lowering effect compared with the corresponding unsalted compound” value [2] was “more potent and longer-lasting”.

With `CCOc1nc2cccc(C(=O)OCOC(=O)OCc3nc(C)c(C)nc3C)c2n1Cc1ccc(-c2ccccc2-c2noc(=O)[n-]2)cc1.[K+]` [QR01017K] the “antihypertensive effect compared with the corresponding unsalted compound” value [1] was “more potent and longer-lasting” and the “heart rate lowering effect compared with the corresponding unsalted compound” value [2] was “more potent and longer-lasting”.

In the case of `CCOc1nc2cccc(C(=O)OC(C)OC(=O)OCc3nc(C)c(C)nc3C)c2n1Cc1ccc(-c2ccccc2-c2noc(=O)[n-]2)cc1.[K+]` (stereo not drawn) [QR01019K], the “systolic blood pressure compared with the control group” value [1] is reported as “significantly decreased”, the “Systolic blood pressure change, 1 hour after administration (average ± standard error)” value [1] is reported as −7.0 ± 3.4 mmHg and the “Systolic blood pressure change, 3 hours after administration (average ± standard error)” value [1] is reported as −34.3 ± 1.9 mmHg. For the same compound, the “Systolic blood pressure change, 5 hours after administration (average ± standard error)” value [1] was −46.5 ± 2.5 mmHg, the “Systolic blood pressure change, 7 hours after administration (average ± standard error)” value [1] was −49.4 ± 4.1 mmHg and the “Systolic blood pressure change, 10 hours after administration (average ± standard error)” value [1] was −45.3 ± 3.3 mmHg. For the same compound, the “Systolic blood pressure change, 24 hours after administration (average ± standard error)” value [1] was −25.9 ± 3.4 mmHg, the “antihypertensive effect compared with the corresponding unsalted compound” value [1] was “more potent with a longer-lasting antihypertensive effect” and the “Heart rate change, 1 hour after administration (average ± standard error)” value [2] was −3.6 ± 2.4 times/minute. For the same compound, the “Heart rate change, 3 hours after administration (average ± standard error)” value [2] was −5.0 ± 2.5 times/minute, the “Heart rate change, 5 hours after administration (average ± standard error)” value [2] was −10.1 ± 3.0 times/minute and the “Heart rate change, 7 hours after administration (average ± standard error)” value [2] was −17.5 ± 3.0 times/minute. The “Heart rate change, 10 hours after administration (average ± standard error)” value [2] was −25.4 ± 2.4 times/minute, the “Heart rate change, 24 hours after administration (average ± standard error)” value [2] was −28.6 ± 8 times/minute and the “heart rate lowering effect compared with the corresponding unsalted compound” value [2] was “more potent with a longer-lasting heart rate lowing effect”.

For `CCOc1nc2cccc(C(=O)OC(C)OC(=O)OCc3nc(C)c(C)nc3C)c2n1Cc1ccc(-c2ccccc2-c2noc(=O)[nH]2)cc1` (stereo not drawn) [QR01019], the “systolic blood pressure compared with the control group” value [1] was “significantly decreased”, the “Systolic blood pressure change, 1 hour after administration (average ± standard error)” value [1] was −4.9 ± 4.8 mmHg and the “Systolic blood pressure change, 3 hours after administration (average ± standard error)” value [1] was −22.0 ± 3.6 mmHg. For the same compound, the “Systolic blood pressure change, 5 hours after administration (average ± standard error)” value [1] was −30.5 ± 3.5 mmHg, the “Systolic blood pressure change, 7 hours after administration (average ± standard error)” value [1] was −38.8 ± 2.3 mmHg and the “Systolic blood pressure change, 10 hours after administration (average ± standard error)” value [1] was −33.0 ± 1.7 mmHg. For the same compound, the “Systolic blood pressure change, 24 hours after administration (average ± standard error)” value [1] was −10.2 ± 2.1 mmHg, the “Heart rate change, 1 hour after administration (average ± standard error)” value [2] was −3.4 ± 2.6 times/minute and the “Heart rate change, 3 hours after administration (average ± standard error)” value [2] was −2.33 ± 2.6 times/minute. The “Heart rate change, 5 hours after administration (average ± standard error)” value [2] was −6.5 ± 2.8 times/minute, the “Heart rate change, 7 hours after administration (average ± standard error)” value [2] was −6.2 ± 3.0 times/minute and the “Heart rate change, 10 hours after administration (average ± standard error)” value [2] was −12.3 ± 2.8 times/minute. For the same compound, the “Heart rate change, 24 hours after administration (average ± standard error)” value [2] was −6.7 ± 2.6 times/minute.

`CCOc1nc2cccc(C(=O)OCOC(=O)OCc3no[n+]([O-])c3C)c2n1Cc1ccc(-c2ccccc2-c2noc(=O)[n-]2)cc1.[K+]` [QR01020K] was tested, and the “antihypertensive effect compared with the corresponding unsalted compound” value [1] was “more potent and longer-lasting” and the “heart rate lowering effect compared with the corresponding unsalted compound” value [2] was “more potent and longer-lasting”.

With `CCOc1nc2cccc(C(=O)OCc3no[n+]([O-])c3C)c2n1Cc1ccc(-c2ccccc2-c2noc(=O)[n-]2)cc1.[K+]` [QR01023K] the “antihypertensive effect compared with the corresponding unsalted compound” value [1] was “more potent and longer-lasting” and the “heart rate lowering effect compared with the corresponding unsalted compound” value [2] was “more potent and longer-lasting”.

With `CCOc1nc2cccc(C(=O)OCc3no[n+]([O-])c3C(C)(C)C)c2n1Cc1ccc(-c2ccccc2-c2noc(=O)[n-]2)cc1.[K+]` [QR01026K] the “antihypertensive effect compared with the corresponding unsalted compound” value [1] was “more potent and longer-lasting” and the “heart rate lowering effect compared with the corresponding unsalted compound” value [2] was “more potent and longer-lasting”.

In the case of `CCOc1nc2cccc(C(=O)OCOC(=O)OCc3ccno3)c2n1Cc1ccc(-c2ccccc2-c2noc(=O)[n-]2)cc1.[K+]` [QR01030K], the “antihypertensive effect compared with the corresponding unsalted compound” value [1] is reported as “more potent and longer-lasting” and the “heart rate lowering effect compared with the corresponding unsalted compound” value [2] is reported as “more potent and longer-lasting”.

In the case of `CCOc1nc2cccc(C(=O)OCOC(=O)OCc3cn(C)cn3)c2n1Cc1ccc(-c2ccccc2-c2noc(=O)[n-]2)cc1.[K+]` [QR01031K], the “antihypertensive effect compared with the corresponding unsalted compound” value [1] is reported as “more potent and longer-lasting” and the “heart rate lowering effect compared with the corresponding unsalted compound” value [2] is reported as “more potent and longer-lasting”.

For `CCOc1nc2cccc(C(=O)OCOC(=O)OCc3ccn(C)c3)c2n1Cc1ccc(-c2ccccc2-c2noc(=O)[n-]2)cc1.[K+]` [QR01032K], the “antihypertensive effect compared with the corresponding unsalted compound” value [1] was “more potent and longer-lasting” and the “heart rate lowering effect compared with the corresponding unsalted compound” value [2] was “more potent and longer-lasting”.

For `CCOc1nc2cccc(C(=O)OC(C)OC(=O)OCc3ccn(C)c3)c2n1Cc1ccc(-c2ccccc2-c2noc(=O)[n-]2)cc1.[K+]` (stereo not drawn) [QR01033K], the “antihypertensive effect compared with the corresponding unsalted compound” value [1] was “more potent and longer-lasting” and the “heart rate lowering effect compared with the corresponding unsalted compound” value [2] was “more potent and longer-lasting”.

`CCOc1nc2cccc(C(=O)OCc3no[n+]([O-])c3CO[N+](=O)[O-])c2n1Cc1ccc(-c2ccccc2-c2noc(=O)[n-]2)cc1.[K+]` [QR01034K] was tested, and the “antihypertensive effect compared with the corresponding unsalted compound” value [1] was “more potent and longer-lasting” and the “heart rate lowering effect compared with the corresponding unsalted compound” value [2] was “more potent and longer-lasting”.

With `CCOc1nc2cccc(C(=O)OC3CCc4c3no[n+]4[O-])c2n1Cc1ccc(-c2ccccc2-c2noc(=O)[n-]2)cc1.[K+]` (stereo not drawn) [QR01035K] the “antihypertensive effect compared with the corresponding unsalted compound” value [1] was “more potent and longer-lasting” and the “heart rate lowering effect compared with the corresponding unsalted compound” value [2] was “more potent and longer-lasting”.

With `CCOc1nc2cccc(C(=O)OCc3no[n+]([O-])c3C#N)c2n1Cc1ccc(-c2ccccc2-c2noc(=O)[n-]2)cc1.[K+]` [QR01036K] the “antihypertensive effect compared with the corresponding unsalted compound” value [1] was “more potent and longer-lasting” and the “heart rate lowering effect compared with the corresponding unsalted compound” value [2] was “more potent and longer-lasting”.
